Columns and labels:
Conditions in all cases: 72 h
[1] = system: myeloid leukemia patient primary cells Pat.14; assay: cell viability (% survival relative to DMSO control); higher = less cytotoxic
Outline: (§1)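 Mononuclear cells from patients with AML or CML were thawed, purified on Ficoll and placed in RPMI 1640 with 10% FBS at 10,000 cells/well on 384-well plates. The plates came pre-printed with 70 compounds at five tenfold concentrations spanning 1–10,000 nM, in duplicate, and cells were exposed for 72 h. CellTiter-Glo gave viability, scaled between DMSO wells and wells with 10 μM proteasome inhibitor. Where reported, area under the curve was obtained from log-logistic fits with four parameters using the drc and PharmacoGx R packages.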

[2] = system: myeloid leukemia patient primary cells Pat.15; assay: as above
Outline: as §1

[3] = system: myeloid leukemia patient primary cells Pat.12; assay: as above
Outline: as §1

[4] = system: myeloid leukemia patient primary cells Pat.4; assay: as above
Outline: as §1

[5] = system: myeloid leukemia patient primary cells Pat.9; assay: as above
Outline: as §1

[6] = system: myeloid leukemia patient primary cells Pat.3; assay: as above
Outline: as §1

[7] = system: myeloid leukemia patient primary cells Pat.1; assay: as above
Outline: as §1

[8] = system: myeloid leukemia patient primary cells Pat.7; assay: as above
Outline: as §1

[9] = system: myeloid leukemia patient primary cells Pat.10; assay: as above
Outline: as §1

[10] = system: myeloid leukemia patient primary cells Pat.5; assay: as above
Outline: as §1

[11] = system: myeloid leukemia patient primary cells Pat.2; assay: as above
Outline: as §1

[12] = system: myeloid leukemia patient primary cells Pat.8; assay: as above
Outline: as §1

[13] = system: myeloid leukemia patient primary cells Pat.6; assay: as above
Outline: as §1

[14] = system: myeloid leukemia patient primary cells Pat.11; assay: as above
Outline: as §1

[15] = system: myeloid leukemia patient primary cells Pat.13; assay: as above
Outline: as §1

HL-60 = system: HL-60
Outline: (§2)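 In 384-well plates holding acoustically pre-printed compounds at five tenfold doses from 1 to 10,000 nM, in duplicate, fifteen myeloid leukaemia cell lines were grown in RPMI 1640 for 72 h at 37 °C with 5% CO2. Luminescent ATP viability was scaled between vehicle and a positive control at 10 µM. The IC50 was then taken from log-logistic dose–response fits with four parameters.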

LAMA-84 = system: LAMA-84
Outline: as §2

ML-2 = system: ML-2
Outline: as §2

KG-1 = system: KG-1
Outline: as §2

MOLM-13 = system: MOLM-13
Outline: as §2

SHI-1 = system: SHI-1
Outline: as §2

NOMO-1 = system: NOMO-1
Outline: as §2

MV4-11 = system: MV4-11
Outline: as §2

KU-812 = system: KU-812
Outline: as §2

Mono-Mac-6 = system: Mono-Mac-6
Outline: as §2

HEL = system: HEL
Outline: as §2

THP-1 = system: THP-1
Outline: as §2

BV-173 = system: BV-173
Outline: as §2

K-562 = system: K-562
Outline: as §2

[16] = system: myeloid leukemia patient primary cells Pat.3; assay: area under dose-response curve (viability, 1 nM-10 uM) (fraction (0-1)); higher = more sensitive
Method: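 AUC (0–1, higher = more sensitive) of the 5-point dose–response (1 nM–10 µM, 72 h, CellTiter-Glo) in primary AML/CML patient mononuclear cells. 0.030103 is the floor for inactive compounds.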

Clc1cc(Cl)c(OCC#CI)cc1Cl [Haloprogin]
cell viability [%]
Conditions	1 nM	10 nM	100 nM	1000 nM	10000 nM
[1]	88.5	96.7	68.3	7.52	< 0
[2]	85.7	98.8	85.4	66.8	6.74
[3]	92.9	96.3	94.2	67.1	0.0486
[4]	88.7	87.3	85.3	13	28.3
[5]	80.9	62.4	43.4	3.45	3.68
[6]	> 100	99.9	92.4	1.81	< 0
[7]	91.8	99.9	82	48.3	14.1
[8]	72.1	> 100	> 100	3.48	< 0
[9]	43.6	75.4	46.9	23.9	93.2
[10]	87.2	69.7	2.24	< 0	0.912
[11]	93.8	96.9	92.1	65	< 0
[12]	66.4	> 100	81.4	67.1	1.78
[13]	> 100	> 100	93.3	54.7	< 0
[14]	94.1	> 100	96	81.8	1.14
[15]	88.1	86	91	67.8	26.3

Conditions	IC50 (cell viability)	area under dose-response curve
BV-173	1580 nM	–
HEL	3.48 µM	–
HL-60	> 10 µM	–
K-562	5.06 µM	–
KG-1	3.26 µM	–
KU-812	2030 nM	–
LAMA-84	5.49 µM	–
ML-2	3.25 µM	–
MOLM-13	3.95 µM	–
MV4-11	2520 nM	–
Mono-Mac-6	2840 nM	–
NOMO-1	3.09 µM	–
SHI-1	> 10 µM	–
THP-1	1.69 µM	–
[16]	–	0.388

c1ccc2c(c1)SCc1c-2[nH]c2ccccc12
cell viability [%]
Conditions	1 nM	10 nM	100 nM	1000 nM	10000 nM
[1]	95.4	54.1	67.2	4.19	6.72
[2]	94.1	97.3	89.1	59.8	0.46
[3]	96.4	96.2	94.1	81.1	0.896
[4]	95.6	83.4	91	67.8	< 0
[5]	91.9	34.7	71	2.02	5.35
[6]	96.1	76.1	89.8	2.3	< 0
[7]	95.2	64.7	96.7	85.8	0.548
[8]	> 100	72.5	> 100	41.6	< 0
[9]	73.8	59.9	41.9	3.78	42.4
[10]	82.4	5.49	44.4	7.88	2.27
[11]	96.8	89.3	97.2	86.9	3.43
[12]	92.5	67.3	69.9	75.9	0.503
[13]	98.8	82.9	95	88.3	0.384
[14]	> 100	94.7	99.1	89.8	0.682
[15]	90.5	72.1	92.1	61.1	22.6

Conditions	IC50 (cell viability)	area under dose-response curve
BV-173	646 nM	–
HEL	3.3 µM	–
HL-60	2 µM	–
K-562	4.42 µM	–
KG-1	0.76 µM	–
KU-812	2920 nM	–
LAMA-84	4.96 µM	–
ML-2	1.48 µM	–
MOLM-13	1.97 µM	–
MV4-11	1060 nM	–
Mono-Mac-6	2890 nM	–
NOMO-1	3.12 µM	–
SHI-1	2.6 µM	–
THP-1	4.04 µM	–
[16]	–	0.37

CCCCCCCCCCCCC/C=C/[C@@H](O)[C@H](CO)N(C)C [N,N-Dimethylsphingosine]
cell viability [%]
Conditions	1 nM	10 nM	100 nM	1000 nM	10000 nM
[1]	97.9	85	57.8	47.9	2.81
[2]	93.8	95.6	78.6	85.5	10.4
[3]	100	84.6	94.2	84.6	42.2
[4]	98.5	80.5	78.5	74	5.51
[5]	68.4	77.7	25.2	21.6	< 0
[6]	57.4	87.2	60	17.4	0.177
[7]	> 100	92.6	79.6	74.3	56.2
[8]	90.6	65.6	86.3	11.6	< 0
[9]	79.3	74.6	39.9	22.9	< 0
[10]	75.5	57.6	10.1	2.01	0.265
[11]	91.4	96.1	88.2	92.4	3.22
[12]	71.9	86.8	69	92.9	0.0301
[13]	> 100	99.3	76.5	83.7	0.544
[14]	94.6	> 100	94.1	93.3	19.4
[15]	94.6	86.2	71.2	85.7	0.263

Conditions	IC50 (cell viability)	area under dose-response curve
BV-173	1670 nM	–
HEL	2.98 µM	–
HL-60	> 10 µM	–
K-562	> 10 µM	–
KG-1	3.58 µM	–
KU-812	> 10000 nM	–
LAMA-84	> 10 µM	–
ML-2	3.46 µM	–
MOLM-13	> 10 µM	–
MV4-11	> 10000 nM	–
Mono-Mac-6	> 10000 nM	–
NOMO-1	> 10 µM	–
SHI-1	> 10 µM	–
THP-1	> 10 µM	–
[16]	–	0.384

Reference: the supplement of paper PMC8671470
